Source: article PMC11638965, “Leveraging Dual-Ligase Recruitment to Enhance Protein Degradation via a Heterotrivalent Proteolysis Targeting Chimera” (Journal of the American Chemical Society, 2024)
“Also recorded” adds a separate entry of the source. Where two headings read alike, the source gives them in different places.

Legend:
RKO CRBN/VHL dKO cells = test: Cell viability assay (CellTiter-Glo); assay type: cell-based, human; details: read-out: EC50 RKO CRBN/VHL dKO
[1] = test system: HiBiT-BRD4 and HaloTag-VHL; test: NanoBRET live cell ternary complex formation assay; assay type: cell-based, human; details: HiBiT-BRD4 HEK293 cells, MG132 pretreatment, 0.01, 0.1 and 1 μM, 3.5 h
Description: NanoBRET ternary complex assays were performed using Promega kits for CRBN (ND2720) and VHL (ND2700) according to manufacturer’s instructions. One day prior to the assay, HEK293 HiBiT-BRD4 (LgBiT Stable) were plated at a density of 800,000 cells/well in a 6-well plate. Cells were allowed to adhere for at least 4 h. Transfection mixtures containing 100 μL Opti-MEM, 6 μL FuGENE HD, and either 2 μg HaloTag-CRBN or HaloTag-VHL were prepared and allowed to incubate for 10 min at room temperature prior to addition to the cells. The next day, cells were trypsinized and resuspended in phenol red-free Opti-MEM Reduced Serum Medium supplemented with 4% FBS. Cells were counted and density was adjusted to 200,000 cells/mL. Cells were divided into two pools: one which received HaloTag NanoBRET 618 Ligand at a final concentration of 100 nM and one which received the same volume of DMSO. Cells were plated on white tissue-culture 96-well plates (100 μL/well) and allowed to adhere overnight. The next day, media was aspirated from the cells and replaced with phenol red-free Opti-MEM Reduced Serum medium supplemented with 4% FBS and a 1:100 dilution of Nano-Glo Vivazine substrate (Promega) and 10 μM MG132. Luminescence was allowed to equilibrate at 37 °C, 5% CO2 for 1 h. During this time, a dilution series of each PROTAC at 10x the desired final concentration was prepared (keeping DMSO constant in all concentrations). 10 μL of this dilution series was added to the plate after luminescence equilibration, and kinetic measurements of donor emission at 460 nm and acceptor emission at 618 nm were collected every 3 min using a ClarioStar plate reader. milliBRET ratios were calculated as (Emission at 618 nm/Emission at 460 nm) × 1000. Donor-contributed background or bleedthrough was corrected for by subtracting milliBRET ratios from no ligand control cells from treated cells. Corrected milliBRET ratios were plotted as a function of time in GraphPad Prism.

CRBN = CRBN (Homo sapiens, UniProt Q96SW2); test: NanoBRET lytic and live cell target engagement assay; assay type: binding; set-up: host or cells: HEK293, transient; details: for IC50: HEK293 cells with NanoLuc-CRBN, CRBN fluorescent tracer
CRBN, sequence (Q96SW2 whole entry, the tested form may be a part): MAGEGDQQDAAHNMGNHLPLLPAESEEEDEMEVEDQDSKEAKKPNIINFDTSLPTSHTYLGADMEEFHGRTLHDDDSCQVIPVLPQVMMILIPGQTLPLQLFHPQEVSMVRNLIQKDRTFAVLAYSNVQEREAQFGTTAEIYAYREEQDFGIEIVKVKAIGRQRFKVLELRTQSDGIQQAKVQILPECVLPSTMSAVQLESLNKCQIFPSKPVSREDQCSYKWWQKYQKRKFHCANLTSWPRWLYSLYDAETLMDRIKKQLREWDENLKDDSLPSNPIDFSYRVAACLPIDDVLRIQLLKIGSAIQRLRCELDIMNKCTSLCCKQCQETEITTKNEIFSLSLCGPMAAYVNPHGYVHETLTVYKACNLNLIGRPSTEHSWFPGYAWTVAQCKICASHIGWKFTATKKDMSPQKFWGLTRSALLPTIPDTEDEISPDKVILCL
CRBN, sequence (Q16531 whole entry partner, the tested form may be a part): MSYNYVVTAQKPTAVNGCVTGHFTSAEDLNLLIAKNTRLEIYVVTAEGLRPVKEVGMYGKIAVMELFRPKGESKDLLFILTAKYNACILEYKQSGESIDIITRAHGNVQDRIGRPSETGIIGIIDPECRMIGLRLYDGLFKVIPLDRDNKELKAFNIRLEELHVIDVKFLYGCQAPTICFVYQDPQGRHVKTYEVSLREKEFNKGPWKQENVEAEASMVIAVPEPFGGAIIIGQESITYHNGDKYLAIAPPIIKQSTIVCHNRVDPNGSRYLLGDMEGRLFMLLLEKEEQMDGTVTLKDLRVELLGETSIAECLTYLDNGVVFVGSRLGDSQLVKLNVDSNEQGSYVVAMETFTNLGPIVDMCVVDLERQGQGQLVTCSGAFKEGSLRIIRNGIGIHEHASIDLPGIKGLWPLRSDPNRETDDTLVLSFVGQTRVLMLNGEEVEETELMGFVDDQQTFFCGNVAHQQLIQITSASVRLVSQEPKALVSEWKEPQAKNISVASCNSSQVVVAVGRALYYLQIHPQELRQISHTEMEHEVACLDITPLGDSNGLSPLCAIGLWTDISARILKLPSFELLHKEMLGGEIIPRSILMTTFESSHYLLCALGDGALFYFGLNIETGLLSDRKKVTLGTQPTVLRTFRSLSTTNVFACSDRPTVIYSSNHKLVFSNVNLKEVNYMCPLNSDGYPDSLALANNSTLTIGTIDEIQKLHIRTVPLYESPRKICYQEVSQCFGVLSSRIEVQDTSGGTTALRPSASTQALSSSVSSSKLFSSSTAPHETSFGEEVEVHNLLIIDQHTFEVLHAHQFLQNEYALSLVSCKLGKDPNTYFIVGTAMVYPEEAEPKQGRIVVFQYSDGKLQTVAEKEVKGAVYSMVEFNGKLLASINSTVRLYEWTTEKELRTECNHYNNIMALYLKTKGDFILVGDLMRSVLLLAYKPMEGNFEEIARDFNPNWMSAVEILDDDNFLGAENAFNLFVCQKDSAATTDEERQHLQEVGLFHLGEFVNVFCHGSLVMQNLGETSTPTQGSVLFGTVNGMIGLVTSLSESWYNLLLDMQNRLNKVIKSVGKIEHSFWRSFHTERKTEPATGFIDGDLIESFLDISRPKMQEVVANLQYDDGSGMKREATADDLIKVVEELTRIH
Description: CRBN (N2910, Promega) and VHL (N2930, Promega) NanoBRET target engagement assays were performed according to manufacturer’s instructions. Transfection complexes were prepared using 1 mL Opti-MEM, 30 μL FuGENE HD, and either 9 μg/mL DDB1 Expression Vector and 1 μg/mL NanoLuc-CRBN fusion vector, or 9 μg/mL Transfection Carrier DNA and 1 μg/mL VHL-NanoLuc fusion vector. Transfection complexes were allowed to form for 20 min at room temperature, then were added to 20 mL of HEK293 cells at density of 200,000 cells/mL. Transfected HEK293 cells were plated in a T75 flask and allowed to express protein overnight. The next day, 85 μL of transfected cells (at 200,000 cells/mL) were replated in white nonbinding 96-well plates for live and lytic target engagement measurements. For live mode, a 100x solution of NanoBRET tracer was prepared using 100% DMSO (50 μM for CRBN live-cell, 100 μM for VHL live-cell). 100x tracer was used to prepare 20× tracer using tracer dilution buffer. PROTACs or test compounds were prepared at 10x final concentrations in Opti-MEM. Five μL of the prepared tracer was then dispensed to each well and the plate was mixed on an orbital shaker at 300 rpm for 15 s. Ten μL of each 10x PROTAC dilution was added to the cells and the plate was mixed again before being incubated at a 37 °C, 5% CO2 incubator for 2 or 5 h (as indicated in each figure). After incubation, a 50 μL of a 3X substrate solution (containing 30 μL NanoBRET Nano-Glo Substrate, 10 μL Extracellular NanoLuc inhibitor, and 4960 μL of Opti-MEM) was added to each well. Plates were incubated for 2–3 min at room temperature, then donor emission (450 nm) and acceptor emission (at 610 nm) values were read using a GloMax Discover. For lytic mode, the following changes were made. […] Plates were incubated in darkness for 5 min after digitonin addition to allow for permeabilization. 50 μL of 3X substrate (30 μL NanoBRET Nano-Glo substrate and 4970 μL Opti-MEM) was added to each well and plates were incubated for 1 min at room temperature before being read on a GloMax Discover as above.

RKO VHL KO cells = test: Cell viability assay (CellTiter-Glo); assay type: cell-based, human
RKO CRBN KO cells = test: Cell viability assay (CellTiter-Glo); assay type: cell-based, human; details: 500 pM to 10 μM, 3 days (Figure 10, Table S6)
[2] = Homo sapiens, 72 h, 316 pM to 10 μM, 3 days, n = 3 (Figures 5 and 8C, Table S5)
[3] = live cells 2 h, read-out: IC50 (Live Cell), Target: CRBN
[4] = lysed with digitonin, read-out: IC50 (Lytic Cell), Target: CRBN
[5] = Homo sapiens, 72 h, 500 pM to 10 μM, 3 days (Figure 10, Table S6)

## Cc1ncsc1-c1ccc(CNC(=O)[C@@H]2C[C@@H](O)CN2C(=O)[C@@H](NC(=O)COCC(C)(COCCOCCOCCNc2cc3c(cc2F)C(=O)N(C2CCC(=O)NC2=O)C3=O)COCCOCCOCCOC(=O)C[C@@H]2N=C(c3ccc(Cl)cc3)c3c(sc(C)c3C)-n3c(C)nnc32)C(C)(C)C)cc1 (mixture of isomers) [AB3063 (26), (17S)-11-((2-(2-(2-((2-(2,6-dioxopiperidin-3-yl)-6-fluoro-1,3-dioxoisoindolin-5-yl)amino)ethoxy)ethoxy)ethoxy)methyl)-17-((2S,4R)-4-hydroxy-2-((4-(4-methylthiazol-5-yl)benzyl)carbamoyl)pyrrolidine-1-carbonyl)-11,18,18-trimethyl-15-oxo-3,6,9,13-tetraoxa-16-azanonadecyl 2-((S)-4-(4-chlorophenyl)-2,3,9-trimethyl-6H-thieno[3,2-f][1,2,4]triazolo[4,3-a][1,4]diazepin-6-yl)acetate]
RKO CRBN/VHL dKO cells; [2]
  EC50: 2240 nM
[1]
  ternary complex formation between BRD4 and VHL (in words): can engage and form ternary complexes
CRBN; [3]
  IC50: 1560 nM
CRBN; [4]
  IC50: 412 nM

## Cc1ncsc1-c1ccc([C@H](C)NC(=O)[C@@H]2C[C@@H](O)CN2C(=O)[C@@H](NC(=O)COCC(C)(COCCOCCOCCNc2cc3c(cc2F)C(=O)N(C2CCC(=O)NC2=O)C3=O)COCCOCCOCCOC(=O)C[C@@H]2N=C(c3ccc(Cl)cc3)c3c(sc(C)c3C)-n3c(C)nnc32)C(C)(C)C)cc1 (mixture of isomers) [AB3067 (27), (17S)-11-((2-(2-(2-((2-(2,6-dioxopiperidin-3-yl)-6-fluoro-1,3-dioxoisoindolin-5-yl)amino)ethoxy)ethoxy)ethoxy)methyl)-17-((2S,4R)-4-hydroxy-2-(((S)-1-(4-(4-methylthiazol-5-yl)phenyl)ethyl)carbamoyl)pyrrolidine-1-carbonyl)-11,18,18-trimethyl-15-oxo-3,6,9,13-tetraoxa-16-azanonadecyl 2-((S)-4-(4-chlorophenyl)-2,3,9-trimethyl-6H-thieno[3,2-f][1,2,4]triazolo[4,3-a][1,4]diazepin-6-yl)acetate]
RKO CRBN/VHL dKO cells; [2]
  EC50: 988 nM
RKO CRBN/VHL dKO cells; [5]
  EC50: 818 nM
RKO VHL KO cells; 316 pM to 10 μM, 3 days, n = 3 (Figures 5 and 8C, Table S5), listed as 27
  EC50: 180 nM
RKO VHL KO cells; [2]
  EC50: 133 nM
RKO VHL KO cells; [5]
  EC50: 110 nM
[1]; listed as 27
  ternary complex formation between BRD4 and VHL (in words): can engage and form ternary complexes; also recorded: more robust dose–response with both VHL and CRBN than 26
RKO CRBN KO cells; Homo sapiens, 72 h
  EC50: 82 nM
CRBN; 27 vs 26
  fold stronger engagement of CRBN over 26, live cell format: 2.5 fold
CRBN; [3]
  IC50: 624 nM
CRBN; [4]
  IC50: 190 nM

## Cc1ncsc1-c1ccc([C@H](C)NC(=O)[C@@H]2C[C@H](O)CN2C(=O)[C@@H](NC(=O)COCC(C)(COCCOCCOCCNc2cc3c(cc2F)C(=O)N(C2CCC(=O)NC2=O)C3=O)COCCOCCOCCOC(=O)C[C@@H]2N=C(c3ccc(Cl)cc3)c3c(sc(C)c3C)-n3c(C)nnc32)C(C)(C)C)cc1 (mixture of isomers) [cis-AB3067 (94), (17S)-11-((2-(2-(2-((2-(2,6-dioxopiperidin-3-yl)-6-fluoro-1,3-dioxoisoindolin-5-yl)amino)ethoxy)ethoxy)ethoxy)methyl)-17-((2S,4S)-4-hydroxy-2-(((S)-1-(4-(4-methylthiazol-5-yl)phenyl)ethyl)carbamoyl)pyrrolidine-1-carbonyl)-11,18,18-trimethyl-15-oxo-3,6,9,13-tetraoxa-16-azanonadecyl 2-((S)-4-(4-chlorophenyl)-2,3,9-trimethyl-6H-thieno[3,2-f][1,2,4]triazolo[4,3-a][1,4]diazepin-6-yl)acetate]
RKO CRBN/VHL dKO cells; 500 pM to 10 μM, 3 days (Figure 10, Table S6), listed as 94
  EC50: ~820 nM
RKO CRBN/VHL dKO cells; [5]
  EC50: 804 nM
RKO VHL KO cells; [5]
  EC50: 48 nM
RKO CRBN KO cells; listed as 94
  EC50: ~820 nM
RKO CRBN KO cells; Homo sapiens, 72 h
  EC50: 832 nM
CRBN; lytic, live cell 2 h and 5 h (Figure S6), listed as 94
  CRBN engagement compared to 27 (in words): slight improvement in binding to CRBN after 2 h; also recorded: even greater binding to CRBN after 5 h compared to 27
